Patent US20180000085A1, “USE OF PICOLINAMIDE COMPOUNDS WITH FUNGICIDAL ACTIVITY” (DOW AGROSCIENCES LLC, priority 2014, published 2018)

Key:
Assay type in all cases: in vivo
Pyricularia oryzae = conditions: 100 ppm; 1 Day Protectant; rice
Leptosphaeria nodorum = assay: Wheat glume blotch (LEPTNO) disease control; conditions: 100 ppm, 1 Day Protectant
Procedure: All fungicides were evaluated using the aforementioned method for their activity vs. all target diseases, unless stated otherwise. Wheat leaf blotch and brown rust activity were also evaluated using track spray applications, in which case the fungicides were formulated as EC formulations, containing 0.1% Trycol 5941 in the spray solutions. Wheat plants (variety Yuma) were grown from seed in a greenhouse in 50% mineral soil/50% soil-less Metro mix until the first leaf was fully emerged, with 7-10 seedlings per pot. These plants were inoculated with an aqueous spore suspension of Zymoseptoria tritici either prior to or after fungicide treatments. After inoculation the plants were kept in 100% relative humidity (one day in a dark dew chamber followed by two to three days in a lighted dew chamber at 20° C.) to permit spores to germinate and infect the leaf. The plants were then transferred to a greenhouse set at 20° C. for disease to develop. When disease symptoms were fully expressed on the 1st leaves of untreated plants, infection levels were assessed on a scale of 0 to 100 percent disease severity. Percent disease control was calculated using the ratio of disease severity on treated plants relative to untreated plants. Example C: Evaluation of Fungicidal Activity: Wheat Glume Blotch (Leptosphaeria nodorum; Bayer Code […]) Wheat plants (variety Yuma) were grown from seed in a greenhouse in 50% mineral soil/50% soil-less Metro mix until the first leaf was fully emerged, with 7-10 seedlings per pot. These plants were inoculated with an aqueous spore suspension of Leptosphaeria nodorum 24 hr after fungicide treatments. After inoculation the plants were kept in 100% relative humidity (one day in a dark dew chamber followed by two days in a lighted dew chamber at 20° C.) to permit spores to germinate and infect the leaf. The plants were then transferred to a greenhouse set at 20° C. for disease to develop. Fungicide formulation, application and disease assessment followed the procedures as described in the Example A.

Phakopsora pachyrhizi = assay: Asian soybean rust (PHAKPA) disease control; conditions: 25 ppm; for PHAKPA disease control, 1DP: 1 Day Protectant; for PHAKPA disease control, 3DC: 3 Day Curative
[1] = system: Colletotrichum lagenarium; assay: Cucumber anthracnose (COLLLA) disease control; conditions: 100 ppm, 1 Day Protectant
Procedure: All fungicides were evaluated using the aforementioned method for their activity vs. all target diseases, unless stated otherwise. Wheat leaf blotch and brown rust activity were also evaluated using track spray applications, in which case the fungicides were formulated as EC formulations, containing 0.1% Trycol 5941 in the spray solutions. Wheat plants (variety Yuma) were grown from seed in a greenhouse in 50% mineral soil/50% soil-less Metro mix until the first leaf was fully emerged, with 7-10 seedlings per pot. These plants were inoculated with an aqueous spore suspension of Zymoseptoria tritici either prior to or after fungicide treatments. After inoculation the plants were kept in 100% relative humidity (one day in a dark dew chamber followed by two to three days in a lighted dew chamber at 20° C.) to permit spores to germinate and infect the leaf. The plants were then transferred to a greenhouse set at 20° C. for disease to develop. When disease symptoms were fully expressed on the 1st leaves of untreated plants, infection levels were assessed on a scale of 0 to 100 percent disease severity. Percent disease control was calculated using the ratio of disease severity on treated plants relative to untreated plants. Example K: Evaluation of Fungicidal Activity: Cucumber Anthracnose (Colletotrichum lagenarium; Bayer Code COLLLA) Cucumber seedlings (variety Bush Pickle) were propagated in soil-less Metro mix, with each pot having one plant, and used in the test when 12 to 14 days old. Test plants were inoculated with an aqueous spore suspension of Colletotrichum lagenarium 24 hr after fungicide treatments. After inoculation the plants were kept in a dew room at 22° C. with 100% relative humidity for 48 hr to permit spores to germinate and infect the leaf. The plants were then transferred to a growth room set at 22° C. for disease to develop. Fungicide formulation, application and disease assessment on the sprayed leaves followed the procedures as described in the Example A.

Zymoseptoria tritici = assay: Leaf blotch of wheat (SEPTTR) disease control on wheat seedlings; conditions: low volume application, 125.1 g/H; for SEPTTR 1DP disease control rating, LV activity at 125.1 g/H: 1 day protectant; for SEPTTR 3DC disease control rating, LV activity at 125.1 g/H: 3 day curative

| SMILES | PYRIOR disease control, 1DP (Pyricularia oryzae) | LEPTNO disease control, 1DP (Leptosphaeria nodorum) | PHAKPA disease control, 1DP (Phakopsora pachyrhizi) | PHAKPA disease control, 3DC (Phakopsora pachyrhizi) | COLLLA disease control, 1DP [1] | SEPTTR 1DP, LV activity at 125.1 g/H (% Control rating) (Zymoseptoria tritici; 1 Day Protectant) | SEPTTR 3DC, LV activity at 125.1 g/H (% Control rating) (Zymoseptoria tritici; 3 Day Curative) | SEPTTR 1DP disease control rating, LV activity at 125.1 g/H (Zymoseptoria tritici) | SEPTTR 3DC disease control rating, LV activity at 125.1 g/H (Zymoseptoria tritici) | LV activity at 125.1 g/H SEPTTR 1DP (disease control rating) (Zymoseptoria tritici; 1 Day Protectant, wheat leaf blotch) | LV activity at 125.1 g/H SEPTTR 3DC (disease control rating) (Zymoseptoria tritici; 3 Day Curative, wheat leaf blotch) |
| --- | --- | --- | --- | --- | --- | --- | --- | --- | --- | --- | --- |
| COc1ccnc(C(=O)N[C@@H](C)C(=O)O[C@@H](C)[C@H](Oc2ccccc2)C(C)C)c1OCOC(C)=O [Cmpd 475] | A (> 80) | A (> 80) | A (> 80) | A (> 80) | A (> 80) | A (> 80) | A (> 80) |  |  |  |  |
| C=CC(C)C(Oc1ccccc1)C(C)OC(=O)C(C)NC(=O)c1nccc(OC)c1OCOC(C)=O (stereo not drawn) [Cmpd 694] | A (> 80) | A (> 80) | A (> 80) | B (≤ 80) | A (> 80) |  |  | B (≤ 80) | A (> 80) |  |  |
| COc1ccnc(C(=O)N[C@@H](C)C(=O)O[C@@H](C)[C@H](Oc2ccccc2)C(C)C)c1OC(C)=O [Cmpd 478] | A (> 80) | A (> 80) | A (> 80) | B (≤ 80) | B (≤ 80) | A (> 80) | A (> 80) |  |  |  |  |
| COc1ccnc(C(=O)N[C@@H](C)C(=O)O[C@@H](C)[C@@H](CC(C)C)Oc2ccccc2)c1OCOC(=O)C(C)C [Cmpd 1101] | B (≤ 80) | B (≤ 80) | A (> 80) | A (> 80) | A (> 80) |  |  |  |  | A (> 80) | A (> 80) |
| COc1ccnc(C(=O)N[C@@H](C)C(=O)O[C@@H](C)[C@H](Oc2cccc(Cl)c2)c2ccccc2)c1OCOC(C)=O [Cmpd 637] | B (≤ 80) | B (≤ 80) | A (> 80) | B (≤ 80) | B (≤ 80) | A (> 80) | A (> 80) |  |  |  |  |
| CC[C@@H](CCOC)[C@@H](Oc1ccccc1)[C@H](C)OC(=O)[C@H](C)NC(=O)c1nccc(OC)c1OCOC(C)=O [Cmpd 476] | A (> 80) | A (> 80) | A (> 80) | B (≤ 80) | B (≤ 80) | A (> 80) | A (> 80) |  |  |  |  |
| CCC(CC)[C@@H](Oc1ccccc1)[C@H](C)OC(=O)[C@H](C)NC(=O)c1nccc(OC)c1OC(C)=O [Cmpd 479] | A (> 80) | A (> 80) | A (> 80) | B (≤ 80) | A (> 80) | A (> 80) | A (> 80) |  |  |  |  |
| CCC(CC)[C@@H](Oc1ccccc1)[C@H](C)OC(=O)[C@H](C)NC(=O)c1nccc(OC)c1OCOC(C)=O [Cmpd 477] | A (> 80) | A (> 80) | A (> 80) | B (≤ 80) | A (> 80) | A (> 80) | A (> 80) |  |  |  |  |
| COc1ccnc(C(=O)N[C@@H](C)C(=O)O[C@@H](C)[C@H](Oc2cc(F)cc(Cl)c2)c2ccccc2)c1OC(C)=O [Cmpd 642] | A (> 80) | A (> 80) | B (≤ 80) | B (≤ 80) | A (> 80) | A (> 80) | A (> 80) |  |  |  |  |
| CCC[C@@H](Oc1ccccc1)[C@H](C)OC(=O)[C@H](C)NC(=O)c1nccc(OC)c1OCOC(C)=O [Cmpd 699] | A (> 80) | A (> 80) | A (> 80) | B (≤ 80) | A (> 80) |  |  | A (> 80) | A (> 80) |  |  |
| COc1ccnc(C(=O)N[C@@H](C)C(=O)O[C@@H](C)[C@H](Oc2ccccc2)c2ccccc2)c1OCOC(C)=O [Cmpd 500] | A (> 80) | A (> 80) | B (≤ 80) | B (≤ 80) | A (> 80) | A (> 80) | A (> 80) |  |  |  |  |
| COc1ccnc(C(=O)N[C@@H](C)C(=O)O[C@@H](C)[C@H](Oc2ccccc2Cl)c2ccccc2)c1OC(C)=O [Cmpd 640] | A (> 80) | A (> 80) | B (≤ 80) | B (≤ 80) | A (> 80) | A (> 80) | A (> 80) |  |  |  |  |
